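Cultured in 96-well plates, cells were exposed to test compound for 48 hours across five concentrations. The concentration for 50% growth inhibition is given as GI50.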 The source made the active and inactive calls. Rule as the data show it: active = GI50 up to about 1.1 µM and inactive = higher.

Test systems include NCI-H23; HCT-116; NCI-H522; SK-OV-3; RPMI-8226; HT-29; HCC 2998; LOX IMVI; A498; MOLT-4; SF-539; SNB-78; CAKI-1; SK-MEL-28; TK-10; HL-60; SF-268.
Common to all, as to assay: inhibition of tumour cell growth, NCI panel, 48 h

On to `NC(=O)C(=Cc1ccc(CP(=O)(O)O)cc1)C(N)=O`, for which the GI50 with NCI-H23, with HCT-116, with NCI-H522, in the experiment with SK-OV-3, in the experiment with RPMI-8226 and in the experiment on HT-29 was > 100 µM (inactive) each time. Besides, the GI50 in the experiment on HCC 2998, in the experiment with LOX IMVI, in the experiment with A498, in the experiment on MOLT-4, in the experiment on SF-539 and in the experiment with SNB-78 was > 100 µM (inactive) in each case. In addition, the GI50 in the experiment with CAKI-1, in the experiment with SK-MEL-28 and with TK-10 was > 100 µM (inactive) throughout.
As for `O=C(CC1C(=O)Nc2ccccc2S1(=O)=O)Nc1cccc(Cl)c1` (stereo not drawn), the GI50 in the experiment on NCI-H23 is 18.9 µM (inactive); in the experiment with HCT-116 it was 18.2 µM (inactive); in the experiment on NCI-H522, 16.9 µM (inactive); in the experiment with HL-60, 18.5 µM (inactive); in the experiment with SF-268, 16.2 µM (inactive); in the experiment on RPMI-8226 it was 3.93 µM (inactive). For the same compound, the GI50 with HT-29 is 17.5 µM (inactive); in the experiment with HCC 2998, 18.2 µM (inactive); in the experiment with LOX IMVI, 15.2 µM (inactive); in the experiment on A498 it was 18.9 µM (inactive); with MOLT-4 it was 11.9 µM (inactive); in the experiment on SF-539 it was 10.7 µM (inactive). Moreover, the GI50 in the experiment with SNB-78 is 59.7 µM (inactive); in the experiment with CAKI-1 it was 21.1 µM (inactive); in the experiment with SK-MEL-28 it was 20.1 µM (inactive); in the experiment on TK-10 it was 22.3 µM (inactive).
Take `O=C(O)CCSC(=O)Nc1ccc(/N=N/c2ccccc2)cc1`: the GI50 is > 100 µM (inactive) in the experiment with NCI-H23; > 100 µM (inactive) with HCT-116; > 100 µM (inactive) in the experiment with SK-OV-3; 36.5 µM (inactive) in the experiment on HL-60; > 100 µM (inactive) in the experiment with SF-268; > 100 µM (inactive) in the experiment on RPMI-8226. For the same compound, the GI50 was > 100 µM (inactive) in the experiment with HT-29; > 100 µM (inactive) in the experiment on HCC 2998; > 100 µM (inactive) with LOX IMVI; 69.5 µM (inactive) with A498; 30.2 µM (inactive) in the experiment with MOLT-4; > 100 µM (inactive) in the experiment on SF-539. In addition, the GI50 in the experiment on SNB-78, in the experiment with CAKI-1, in the experiment with SK-MEL-28 and with TK-10 was > 100 µM (inactive) in each case.
For `COC(=O)/C(C#N)=C(\N)C(Cl)(Cl)Cl`, the GI50 was 4.82 µM (inactive) in the experiment with NCI-H23; 0.643 µM (active) in the experiment on HCT-116; 1.9 µM (inactive) in the experiment with NCI-H522; 1.81 µM (inactive) in the experiment on SK-OV-3; 0.319 µM (active) with HL-60; 3.92 µM (inactive) in the experiment with SF-268. Moreover, the GI50 in the experiment on RPMI-8226 is 1.57 µM (inactive); with HCC 2998, 3.06 µM (inactive); in the experiment with LOX IMVI, 2.65 µM (inactive); in the experiment with A498, 3.4 µM (inactive); with MOLT-4, 0.379 µM (active); with SNB-78 it was 6.18 µM (inactive). The GI50 in the experiment on CAKI-1 was 5.4 µM (inactive); in the experiment with SK-MEL-28 it was 2 µM (inactive); in the experiment with TK-10 it was 2.55 µM (inactive).
Take `COc1cc(NCC(C#N)C#N)ccc1/N=N/c1ccc([N+](=O)[O-])cc1`: the GI50 is > 100 µM (inactive) in the experiment with NCI-H23; > 100 µM (inactive) in the experiment on HCT-116; 46.5 µM (inactive) with NCI-H522; > 100 µM (inactive) in the experiment with SK-OV-3; > 100 µM (inactive) in the experiment on SF-268; 49.1 µM (inactive) with RPMI-8226. Besides, the GI50 was > 100 µM (inactive) in the experiment with HT-29; > 100 µM (inactive) with HCC 2998; > 100 µM (inactive) in the experiment on LOX IMVI; > 100 µM (inactive) in the experiment on A498; 58.3 µM (inactive) in the experiment with MOLT-4; > 100 µM (inactive) with SF-539. Also, the GI50 with SNB-78, with CAKI-1, with SK-MEL-28 and in the experiment with TK-10 was > 100 µM (inactive) in each case.
Consider `CCCN1CN(C(C(=O)N[C@@H]2C(=O)N3C2SC(C)(C)C3C(=O)O)c2ccccc2)CSC1=S` (stereo partly drawn), for which the GI50 is > 100 µM (inactive) in the experiment on NCI-H23; 57.1 µM (inactive) in the experiment on HCT-116; 23.1 µM (inactive) with NCI-H522; > 100 µM (inactive) with SK-OV-3; 48 µM (inactive) in the experiment with HL-60; > 100 µM (inactive) in the experiment on SF-268. Moreover, the GI50 in the experiment on RPMI-8226 was 53.6 µM (inactive); with HT-29 it was 48.1 µM (inactive); in the experiment with LOX IMVI, 50.9 µM (inactive); with A498, > 100 µM (inactive); in the experiment with MOLT-4, > 100 µM (inactive); in the experiment on SF-539, > 100 µM (inactive). In addition, the GI50 in the experiment with SNB-78, with CAKI-1, in the experiment with SK-MEL-28 and in the experiment with TK-10 was > 100 µM (inactive) throughout.
In the case of `NC(CCSC(F)F)C(=O)O` (stereo not drawn), the GI50 in the experiment with NCI-H23, in the experiment on HCT-116, in the experiment with NCI-H522, with SK-OV-3, in the experiment on SF-268 and in the experiment on HT-29 was > 100 µM (inactive) each time. The GI50 with HCC 2998, in the experiment with LOX IMVI, in the experiment with MOLT-4, in the experiment on SF-539, in the experiment on SNB-78 and in the experiment with CAKI-1 was > 100 µM (inactive) throughout. Further, the GI50 in the experiment on SK-MEL-28 and in the experiment with TK-10 was > 100 µM (inactive) each time.
Regarding `COc1nc2nccc-2c2occn12`, the GI50 with NCI-H23, in the experiment on HCT-116, with NCI-H522, in the experiment with SK-OV-3, in the experiment on SF-268 and in the experiment on RPMI-8226 was > 100 µM (inactive) each time. Moreover, the GI50 with HT-29, with HCC 2998, in the experiment on LOX IMVI, in the experiment with A498, in the experiment with MOLT-4 and in the experiment with SF-539 was > 100 µM (inactive) throughout. The GI50 in the experiment on SNB-78, with CAKI-1, with SK-MEL-28 and with TK-10 was > 100 µM (inactive) each time.
As to `CCOC(=O)N[C@@H]1C(CC(=O)OC)O[C@H]2OC(C)(C)O[C@H]21` (stereo partly drawn), the GI50 in the experiment with NCI-H23, with SK-OV-3, in the experiment with HL-60, in the experiment on SF-268, with RPMI-8226 and in the experiment with HT-29 was > 100 µM (inactive) throughout. Also, the GI50 with HCC 2998, in the experiment on LOX IMVI, in the experiment with A498, with MOLT-4, with SF-539 and with SNB-78 was > 100 µM (inactive) in each case. Moreover, the GI50 in the experiment on CAKI-1 and in the experiment with SK-MEL-28 was > 100 µM (inactive) throughout.

The values above are taken from ChEMBL document CHEMBL1201862, “PubChem BioAssay data set” (2004).
